target: T1, Prostaglandin G/H synthase 1 (Ovis aries, UniProt P05979); experiment: Inhibition of Ovis aries (sheep) COX1 using arachidonic acid as substrate using cyclic naphthalene hydrazide by chemiluminescence assay
T1 sequence (P05979 whole entry): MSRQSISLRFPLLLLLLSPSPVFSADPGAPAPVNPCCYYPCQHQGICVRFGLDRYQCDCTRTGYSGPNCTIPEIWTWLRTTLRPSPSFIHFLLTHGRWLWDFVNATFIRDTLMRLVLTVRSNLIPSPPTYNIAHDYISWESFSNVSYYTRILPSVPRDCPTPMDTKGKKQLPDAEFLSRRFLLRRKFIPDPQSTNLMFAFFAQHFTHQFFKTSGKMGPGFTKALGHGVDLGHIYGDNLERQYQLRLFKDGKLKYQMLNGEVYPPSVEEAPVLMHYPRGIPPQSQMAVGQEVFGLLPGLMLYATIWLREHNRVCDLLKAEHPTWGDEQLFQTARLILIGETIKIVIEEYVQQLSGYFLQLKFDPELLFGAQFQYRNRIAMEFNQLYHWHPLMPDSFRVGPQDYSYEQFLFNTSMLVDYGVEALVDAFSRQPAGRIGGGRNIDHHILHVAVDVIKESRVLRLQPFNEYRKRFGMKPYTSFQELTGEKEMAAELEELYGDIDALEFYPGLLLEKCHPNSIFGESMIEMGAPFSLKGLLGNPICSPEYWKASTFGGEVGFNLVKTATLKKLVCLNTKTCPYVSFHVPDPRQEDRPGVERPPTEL

| IC50 [µM] | Structure (SMILES) |
| --- | --- |
| 56.5 | CS(=O)(=O)c1ccc(-c2nc3c(n2-c2ccccc2)CCCC3)cc1 |
| 55.7 | CS(=O)(=O)c1ccc(-c2nc3c(n2-c2ccc(F)cc2)CCCC3)cc1 |
| 61.6 | CS(=O)(=O)c1ccc(-c2nc3c(n2-c2ccc(Cl)cc2)CCCC3)cc1 |
| 40.1 | Cc1ccc(-n2c(-c3ccc(S(C)(=O)=O)cc3)nc3c2CCCC3)cc1 |
| 42.2 | COc1ccc(-n2c(-c3ccc(S(C)(=O)=O)cc3)nc3c2CCCC3)cc1 |
| 36.1 | CC(=O)Nc1ccc(-n2c(-c3ccc(S(C)(=O)=O)cc3)nc3c2CCCC3)cc1 |
